Source: publication PMC11285769, “A pan-respiratory antiviral chemotype targeting a transient host multi-protein complex” (Open Biology, 2024)
Values joined by “and” are separate entries in the source; they are usually repeats but may differ in a detail not shown here. Equal entries are not always repeated.

Experiments:
FLUV A/WSN/33 = type: cell-based, influenza A/WSN/33
[1] = test system: SARS-CoV-2 delta variant (lineage B.1.617.2); type: cell-based
[2] = test system: SARS-CoV-2 gamma variant, lineage P.1; type: cell-based
[3] = test system: SARS-CoV-2 Omicron variant (lineage B.A.1); type: cell-based

SMILES | activity against FLUV after 7 passages with compound (FLUV A/WSN/33) | efficacy against SARS-CoV-2 delta variant [1] | viral load eliminated compared to vehicle [2] [%] | efficacy against SARS-CoV-2 Omicron [3] | percentage reduction in infection (FLUV A/WSN/33)
CCOC(=O)C1=C[C@@H](OC(CC)CC)[C@H](NC(C)=O)[C@@H](N)C1 [Oseltamivir, reference compound] | lost activity by passage 7 | – | – | – | –
COc1c(CNC(=O)c2cc(C3CC3)nn2C)cccc1OC(F)(F)F [PAV-431] | – | clear trend | ≥ 90 | significant efficacy | –
COc1cccc(CNC(=O)c2cc(C3CC3)nn2C)c1OC [PAV-835] | retained the same activity against FLUV as it did against a naive strain | – | – | – | 98.9 percentage and 91.9 percentage
